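Five concentrations, 48 hours, 96-well plates. Abbreviation: GI50, concentration required for 50% inhibition of growth.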 Activity calls are given as the source filed them. Rule as the data show it: active = GI50 up to about 1.1 µM and inactive = higher.
Assays:
Assay in all cases: inhibition of tumour cell growth, NCI panel, 48 h
CCRF-CEM = test system: CCRF-CEM
HOP-92 = test system: HOP-92
MDA-MB-231 = test system: MDA-MB-231
RXF 393 = test system: RXF 393
SN12C = test system: SN12C
TK-10 = test system: TK-10
UACC-62 = test system: UACC-62

Measured: GI50

COc1cccc(N2C(=O)CSC2c2c[nH]c3ccccc23)c1 (configuration not stated)
inactive: CCRF-CEM > 100 µM | HOP-92 66.1 µM | MDA-MB-231 > 100 µM | RXF 393 > 100 µM | SN12C > 100 µM | TK-10 > 100 µM | UACC-62 > 100 µM

From ChEMBL document CHEMBL1201862, “PubChem BioAssay data set” (2004)
